Read-outs that look alike come from different tables or passages of the source.
Key:
[1] = tested on: 22Rv1 cells; assay: Prostate cancer cell growth assay, single compound (CellTiter-Glo); type: cell-based; details: Homo sapiens, 120 h, 22Rv1 cell growth, 5 days incubation
Experimental: (§1) Growth assays were done in triplicate and performed as follows.
(§2) 1. On Day 1, LNCaP and 22Rv1 cells were seeded in wells of a 96-well plate at a density of 3000 cells/well in 100 μL of culture media (RPMI 1640 medium supplemented with 10% fetal bovine serum and 1% Penicillin/Streptomycin). Cells were incubated overnight at 37° C. in a humidified atmosphere with 5% CO2.
(§3) 2. On Day 2, for single compound treatment studies, each compound was serially diluted 1:3 in DMSO to create a 9-point titration. A 3 μL aliquot of each dilution was added to 747 μL culture media and 100 μL were added to each triplicate well. Wells containing 0.2% DMSO-treated cells served as uninhibited controls.
(§4) In all studies, cells were incubated at 37° C. in a humidified atmosphere with 5% CO2 for 5 days.
(§5) 3. On Day 7, cell cultures were brought to room temperature for 30 minutes and 50 μL of reconstituted CellTiter-Glo Reagent was added to each well. Plates were shaken at room temperature for approximately 15 minutes Luminescent signal was quantified on a microplate reader.
(§6) 1. For single compound treatment study, all responses were expressed as % inhibition (the percentage inhibition compared to the average response of the DMSO-treated control wells). The data were analyzed by using nonlinear regression to generate IC50 values in Prism (GraphPad, La Jolla, Calif.). 95% confident interval (CI95) of the IC50 values were also calculated in Prism.

[2] = tested on: LNCaP cells; assay: as above; type: cell-based; details: Homo sapiens, 120 h, 5 days incubation
Experimental: as §1, §2, §3, §4, §5, §6

[3] = n=3, read-out: IC50 (geometric mean)

IC50 [1, 3]	IC50 [2, 3]	IC50 ([1]; read-out: IC50)	IC50 ([2]; read-out: IC50)	SMILES
42000 nM	3500 nM			CC(=O)O[C@H]1CC[C@@]2(C)C(=CC[C@@H]3[C@@H]2CC[C@]2(C)C(c4cccnc4)=CC[C@@H]32)C1 [Abiraterone acetate, abiraterone acetate, reference compound]
34 nM	43 nM	34 nM	43 nM	Cc1noc(C)c1-c1cnc2c(-c3ccc(C(=O)O)cc3)cn(C(C)(c3ccccn3)c3ccccn3)c2c1 [Compound I, 4-(1-(1,1-di(pyridin-2-yl)ethyl)-6-(3,5-dimethylisoxazol-4-yl)-1H-pyrrolo[3,2-b]pyridin-3-yl)benzoic acid]

Source: patent US11628176B2, “Combinational drug therapies” (Opna Bio SA, priority 2020, dated 2023)
